The values below come from PMC6123691, “Structural basis for promotion of duodenal iron absorption by enteric ferric reductase with ascorbate” (Communications Biology, 2018).

Data set [1] concerns the target T1, duodenal cytochrome b (Dcytb) (Homo sapiens, UniProt Q53TN4).
T1 construct: gene CYBRD1; full-length Dcytb (residues 1–286); atomic model residues 6–230
T1 sequence (Q53TN4 1-286): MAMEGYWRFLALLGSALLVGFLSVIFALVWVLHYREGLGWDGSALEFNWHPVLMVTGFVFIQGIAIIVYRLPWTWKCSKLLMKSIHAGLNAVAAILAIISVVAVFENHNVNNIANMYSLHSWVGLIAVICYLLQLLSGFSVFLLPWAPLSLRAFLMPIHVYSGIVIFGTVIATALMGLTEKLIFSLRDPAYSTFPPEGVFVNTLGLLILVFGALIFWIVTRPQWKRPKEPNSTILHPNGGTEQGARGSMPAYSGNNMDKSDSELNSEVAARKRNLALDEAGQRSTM
The data set can be described thus: X-ray crystal structure ([…] Å, soaked with […] sodium ascorbate and ZnSO4); stopped-flow heme reduction. In kind it is binding.

Data set [2] concerns the molecule itself. Description: crystal structure; lipidic cubic phase (monoolein) crystals, space group C2; substrate-free form at 2.6 Å and Zn2+/ascorbate-soaked form at 2.8 Å; the dimer is formed by crystallographic twofold symmetry.

Turning to `O=C1O[C@H]([C@@H](O)CO)C(O)=C1O` [Asc, ascorbate], the “X-ray crystal structure (2.8 Å, soaked with 1 M sodium ascorbate and ZnSO4); sto” value in data set [1] is recorded as “The electron density from one ascorbate molecule was observed on the cytoplasmic surface of Dcytb in proximity to the heme”.

B1: human duodenal cytochrome b (Dcytb) (enzyme, UniProt Q53TN4 1-286, looked up)
chain: T1 sequence (Q53TN4 1-286)
notes: human duodenal cytochrome b (Dcytb), member of the cytochrome b561 family, full-length, residues 1-286; codon-optimized gene; the atomic model includes only residues 6-230; A thrombin cleavage site stood between the protein and the C-terminal hexa-His tag (pET-21b(+)); after cleavage some residues of the site may remain at the C-terminus; Integral membrane protein, solubilised in DDM and …
By stoichiometry N is commonly meant the number of molecules, sites or subunits per partner or assembly. For the molecule B1, the “stoichiometry N” value in data set [2] stood at 2.
